Like-named read-outs stand apart in the source and are kept apart here.

This assay addresses recombinant human MGAT2 (Homo sapiens (Human), UniProt Q3SYC2). Nature of the assay: Measurement of human MGAT2 inhibitory activity. The format is biochemical. The method, then:
A full-length human MGAT2 gene to which a Flag-tag had been added at the N-terminal was inserted into pFastBac (from Invitrogen). A recombinant baculovirus was produced in accordance with the protocol for a Bac-to-Bac baculovirus expression system (produced by Invitrogen), and Sf-9 cells were infected therewith. The cells were collected and sonicated, and then the membrane fraction was collected through centrifugation. Western blotting analysis with an anti-Flag antibody was performed for the membrane fraction to confirm expression, and the membrane fraction was used as a recombinant human MGAT2 enzyme solution.
Solutions of the compounds of the present invention in DMSO were each aliquoted into 0.2-μL portions in a 384-well polystyrene microplate produced by Corning Incorporated, and 5 μL of an enzyme solution prepared with an assay buffer (100 mmol/L phosphate buffer (pH 7.4) containing 2 mmol/L DTT) and 5 μL of a substrate solution (100 mmol/L phosphate buffer (pH 7.4), 30 μmol/L 2-Oleoylglycerol, 10 μmol/L Oleoyl-CoA) were added thereto, and the resultant was stirred and centrifuged, and incubated in a moist chamber at room temperature for 1 hour. After enzymatic reaction, 50 μL of a quenching solution (containing 0.2 μmol/L Diolein-d5, 0.4% formic acid, and 50% isopropanol) containing Internal Standard (IS) was added to terminate the reaction, and the resultant was sealed in a plate produced by Shimadzu GLC Ltd., and then stirred and centrifuged, and measurement was performed by using an electrospray ionization method with a RapidFire360 and Agilent 6550 Q-TOF mass spectrometer. Diolein as a reaction product (P) of 2-Oleoylglycerol as the substrate and an ammonium adduct ion of the IS were detected, and the peak intensity ratio, P/IS, was calculated from the peak heights to evaluate the inhibitory activity. Inhibitory activities with/without addition of enzyme were defined as Control (+)/Control (−), respectively, and the respective % inhibitions were defined as 0% inhibition and 100% inhibition. The inhibitory activity was calculated from formula below with TIBCO Spotfire (produced by TIBCO Software Inc.): Inhibitory activity (%)=[1−{Sample−Control(−)}/{Control(+)−Control(−)}]*100 where Sample indicates a peak intensity ratio: P/IS, when the compound of the present invention was added.

Where [1] appears, read: read-out: IC50 (concentration exhibiting 50% enzyme inhibition), Table 52.
Where [2] appears, read: read-out: IC50 (concentration exhibiting 50% enzyme inhibition), Table 53.

Chain of recombinant human MGAT2 (Q3SYC2 whole entry): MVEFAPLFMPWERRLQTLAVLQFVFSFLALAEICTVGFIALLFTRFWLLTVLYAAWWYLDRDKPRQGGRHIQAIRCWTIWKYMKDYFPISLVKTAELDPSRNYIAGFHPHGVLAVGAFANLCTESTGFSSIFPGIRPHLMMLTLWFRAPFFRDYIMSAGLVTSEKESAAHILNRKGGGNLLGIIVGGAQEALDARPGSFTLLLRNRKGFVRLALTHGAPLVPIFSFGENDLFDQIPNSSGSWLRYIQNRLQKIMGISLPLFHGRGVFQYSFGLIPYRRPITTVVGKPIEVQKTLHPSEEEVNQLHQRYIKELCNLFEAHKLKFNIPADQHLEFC

On to `COCCCS(=O)(=O)NC(=O)c1c2c(nn1CCC1CC1)C[C@]1(CCc3cc(OCC(F)(F)F)ccc31)NC2=O` [Compound I-114], for which, under setting [1], the IC50 was found to be 110 nM. In the case of `Cc1ccc(-n2nc3c(c2NC(=O)CS(C)(=O)=O)C(=O)N[C@@]2(CCc4cc(OCC(F)(F)F)ccc42)C3)cn1` [II-138], under setting [2], the IC50 was determined as 45.7 nM. `CS(=O)(=O)CC(=O)Nc1c2c(nn1CCCOC(F)(F)F)C[C@]1(CCOc3cc(OCC(F)(F)F)ccc31)NC2=O` [II-64]: the IC50 under setting [2] came to 2.9 nM.

For the compound `CS(=O)(=O)CC(=O)Nc1c2c(nn1CC1CC(F)(F)C1)C[C@]1(CCc3cc(OCC(F)(F)F)ccc31)NC2=O` [II-12], under setting [2], the IC50 is 35 nM. As for `CS(=O)(=O)CC(=O)Nc1c2c(nn1CCC1CC1)C[C@]1(CCc3cc(N4CC(F)(F)C4)cc(F)c31)NC2=O` [Compound I-202], the IC50 under setting [1] turned out to be 6.2 nM. Take `Cc1cc(-n2nc3c(c2C(=O)NCC#N)C(=O)N[C@@]2(CCc4cc(OCC(F)(F)F)ccc42)C3)no1` [II-251]: under setting [2], the IC50 amounted to 10.1 nM. Regarding `O=C1N[C@@]2(CCc3cc(OCC(F)(F)F)ccc32)Cc2nn(CCC3CC3)c(NC(=O)[C@H]3CCCS3(=O)=O)c21` [II-81], under setting [2], the IC50 is 46.6 nM. For `CS(=O)(=O)CC(=O)Nc1c2c(nn1CCCOC(F)(F)F)C[C@]1(CCc3cc(CCC(F)(F)F)ccc31)NC2=O` [II-283], under setting [2], the IC50 was less than 1 nM. For the compound `CS(=O)(=O)CC(=O)Nc1c2c(nn1CCCOC(F)F)C[C@]1(CCc3cc(CCC(F)(F)F)ccc31)NC2=O` [II-285], the IC50 under setting [2] came to 1.04 nM. On to `CS(=O)(=O)CC(=O)Nc1c2c(nn1CCC1CC1)C[C@@]1(CCc3cc(N4CC(Oc5ccccc5)C4)ccc31)NC2=O` [II-43], for which the IC50 under setting [2] worked out at 3 nM. On the same count and under the same terms, for `CS(=O)(=O)CC(=O)Nc1c2c(nn1-c1ccc(C#N)cn1)CC1(Cc3cc(F)c(F)cc3C1)NC2=O` [II-102] the value was 56.3 nM. As for `CS(=O)(=O)CC(=O)Nc1c2c(nn1CCC1CCOCC1)C[C@]1(CCc3cc(OCC(F)(F)F)ccc31)NC2=O` [Compound I-258], under setting [1], the IC50 turned out to be 120 nM. `CC(C)S(=O)(=O)NC(=O)c1c2c(nn1CCC1CC1)C[C@]1(CCc3cc(OCC(F)(F)F)ccc31)NC2=O` [Compound I-117]: the IC50 under setting [1] came out at 51 nM. As for `Cc1ccc(-n2nc3c(c2NC(=O)CS(C)(=O)=O)C(=O)N[C@@]2(CCc4cc(N5CC(F)(F)C5)ccc42)C3)nc1` [II-120], the IC50 under setting [2] worked out at 9.29 nM. As for `CS(=O)(=O)CC(=O)Nc1c2c(nn1CCCc1ccccc1)C[C@]1(CCc3cc(OCCCC(F)(F)F)ccc31)NC2=O` [Compound I-50], under setting [1], the IC50 amounted to 190 nM. Take `Cc1cc(-n2nc3c(c2NC(=O)CS(C)(=O)=O)C(=O)N[C@@]2(CCOc4cc(C5CC5)ccc42)C3)no1` [II-235]: the IC50 under setting [2] worked out at 1.17 nM. Regarding `Cc1cc(-n2nc3c(c2C(=O)NCC(F)(F)F)C(=O)N[C@@]2(CCc4cc(OCC(F)(F)F)ccc42)C3)no1` [II-252], under setting [2], the IC50 was 22.6 nM. Regarding `CS(=O)(=O)Nc1c2c(nn1CCC1CC1)C[C@]1(CCc3cc(OCCCC(F)(F)F)ccc31)NC2=O` [Compound I-38], the IC50 under setting [1] was 625 nM. Consider `Cc1cc(-n2nc3c(c2NC(=O)CS(C)(=O)=O)C(=O)N[C@](C)(c2ccc(OCC(F)(F)F)cc2F)C3)no1` [II-167], for which the IC50 under setting [2] was 3.63 nM.

`CC(C)(O)C1CN(c2ccc3c(c2)CC[C@@]32Cc3nn(CCC4CC4)c(NC(=O)CS(C)(=O)=O)c3C(=O)N2)C1` [II-63]: under setting [2], the IC50 came to 300 nM. In the case of `CS(=O)(=O)CC(=O)Nc1c2c(nn1CCCOC(F)(F)F)C[C@@]1(NC2=O)c2ccc(OCC(F)(F)F)cc2CC1(F)F` [II-97], under setting [2], the IC50 was found to be 3.97 nM. Take `O=C1N[C@@]2(CCc3cc(OCC(F)(F)F)ccc32)Cc2nn(CCC3CC3)c(C(=O)O)c21` [Compound I-187]: the IC50 under setting [1] was 190 nM.

On to `CNC(=O)c1c2c(nn1CCC1CC1)C[C@]1(CCc3cc(OCCCC(F)(F)F)ccc31)NC2=O` [Compound I-11], for which, under setting [1], the IC50 came to 500 nM. Turning to `Cc1ccccc1Cn1nc(NC(=O)CS(C)(=O)=O)c2c1C[C@]1(CCc3cc(OCCCC(F)(F)F)ccc31)NC2=O` [Compound I-75], the IC50 under setting [1] was 580 nM. Consider `N#CC1(C(=O)NCc2c3c(nn2CCC2CC2)C[C@]2(CCc4cc(OCC(F)(F)F)ccc42)NC3=O)CC1` [Compound I-153], for which, under setting [1], the IC50 worked out at 240 nM. `CC(C)OC1CN(c2ccc3c(c2)CC[C@@]32Cc3nn(CCC4CC4)c(NC(=O)CS(C)(=O)=O)c3C(=O)N2)C1` [II-41]: the IC50 under setting [2] is 40 nM.

Turning to `CS(=O)(=O)CC(=O)Nc1c2c(nn1CC1CCCO1)C[C@]1(CCc3cc(OCC(F)(F)F)ccc31)NC2=O` (stereo partly shown) [Compound I-257], the IC50 under setting [1] worked out at 80 nM. On to `N#Cc1ccc(-n2nc3c(c2C(=O)NC2CS(=O)(=O)C2)C(=O)N[C@@]2(CCc4cc(OCC(F)(F)F)ccc42)C3)nc1` [II-189], for which, under setting [2], the IC50 amounted to 3.06 nM. In the case of `Cc1cc(-n2nc3c(c2NC(=O)CS(C)(=O)=O)C(=O)N[C@@]2(CCc4cc(CCC(F)(F)F)ccc42)C3)nn1C` [II-299], the IC50 under setting [2] turned out to be 1.98 nM. Take `O=C1N[C@@]2(CCc3cc(OCC(F)(F)F)cc(F)c32)Cc2nn(CCC3CC3)c(-c3nnn[nH]3)c21` [Compound I-278]: the IC50 under setting [1] worked out at 29 nM.

Turning to `Cc1ccc(-n2nc3c(c2NC(=O)CS(C)(=O)=O)C(=O)N[C@@]2(CCc4cc(OCCCC(F)(F)F)ccc42)C3)cc1` [Compound I-42], the IC50 under setting [1] was 2.5 nM. With `COc1ccccc1C(=O)Nc1c2c(nn1CCC1CC1)C[C@]1(CCc3cc(OCCCC(F)(F)F)ccc31)NC2=O` [Compound I-15], under setting [1], the IC50 was found to be 280 nM. `CC(=O)Nc1c2c(nn1-c1ccc(C#N)cn1)C[C@@]1(CCc3cc(OCC(F)(F)F)ccc31)NC2=O` [II-51]: the IC50 under setting [2] stood at 440 nM. `O=C1N[C@@]2(CCc3cc(OCC(F)(F)F)ccc32)Cc2nn(CCC3CC3)c(-c3noc(=O)[nH]3)c21` [Compound I-186]: the IC50 under setting [1] came to 7.6 nM.

In the case of `CS(=O)(=O)CC(=O)Nc1c2c(nn1-c1ccc3c(c1)CCC3)C[C@]1(CCc3cc(OCC(F)(F)F)ccc31)NC2=O` [Compound I-246], under setting [1], the IC50 is 24 nM. As to `N#Cc1ccc(-n2nc3c(c2C(=O)NS(=O)(=O)Cc2ccccc2)C(=O)N[C@@]2(CCc4cc(OCC(F)(F)F)ccc42)C3)nc1` [II-218], the IC50 under setting [2] was 67.8 nM. As for `CC(C)c1ccc(N2CC3(Cc4nn(-c5ccc(C#N)cn5)c(NC(=O)CS(C)(=O)=O)c4C(=O)N3)C2)cc1` [II-80], the IC50 under setting [2] worked out at 9.1 nM. For the compound `N#Cc1ccc(-n2nc3c(c2C(=O)N[C@H]2CC[C@H](O)CC2)C(=O)N[C@@]2(CCc4cc(OCC(F)(F)F)ccc42)C3)nc1` [II-130], the IC50 under setting [2] is 130 nM. On to `CC(F)(F)COc1ccc2c(c1)CC[C@@]21Cc2nn(CCCOC(F)(F)F)c(NC(=O)CS(C)(=O)=O)c2C(=O)N1` [II-255], for which the IC50 under setting [2] was 2.74 nM. Regarding `CS(=O)(=O)CC(=O)Nc1c2c(nn1-c1ccc(F)cn1)C[C@]1(CCc3cc(OCC(F)(F)F)ccc31)NC2=O` [Compound I-203], the IC50 under setting [1] is 2.6 nM. On to `Cn1nccc1C(=O)Nc1c2c(nn1CCC1CC1)C[C@]1(CCc3cc(OCC(F)(F)F)ccc31)NC2=O` [Compound I-223], for which the IC50 under setting [1] was 140 nM. The same measure, in the same setting: the figure for `Cc1ccccc1C(=O)NCc1c2c(nn1CCC1CC1)C[C@]1(CCc3cc(OCC(F)(F)F)ccc31)NC2=O` [Compound I-146] is 420 nM. As to `CS(=O)(=O)CC(=O)Nc1c2c(nn1CCC1CC1)C[C@@]1(CCOc3cc(OCC(F)(F)F)ccc31)NC2=O` [II-9], the IC50 under setting [2] was found to be 9.5 nM. With `Cc1ccc(-n2nc3c(c2C(=O)NCCS(N)(=O)=O)C(=O)N[C@@]2(CCc4cc(OCC(F)(F)F)ccc42)C3)nc1` [II-171], under setting [2], the IC50 was determined as 9.64 nM. On the same count and under the same terms, for `CS(=O)(=O)CC(=O)Nc1c2c(nn1CCC1CC1)C[C@@]1(CCc3cc(OCC(F)F)ccc31)NC2=O` [II-77] the value was 5.5 nM; for `CS(=O)(=O)CC(=O)Nc1c2c(nn1-c1ccc(C3CC3)cn1)C[C@]1(CCOc3cc(OCC(F)(F)F)ccc31)NC2=O` [II-296], less than 1 nM. Turning to `COCC(=O)Nc1c2c(nn1CCC1CC1)C[C@]1(CCc3cc(OCCCC(F)(F)F)ccc31)NC2=O` [Compound I-29], the IC50 under setting [1] was 113 nM. Regarding `CS(=O)(=O)CC(=O)Nc1nn(CCC2CC2)c2c1C(=O)N[C@@]1(CCc3cc(OCCCC(F)(F)F)ccc31)C2` [Compound I-5], under setting [1], the IC50 was found to be 500 nM.

In the case of `N#Cc1ccc(-n2nc3c(c2C(=O)NCC2(O)CC2)C(=O)N[C@@]2(CCc4cc(OCC(F)(F)F)ccc42)C3)nc1` [II-112], the IC50 under setting [2] was 5.28 nM.

With `Cc1ccc(-n2nc3c(c2NC(=O)CS(C)(=O)=O)C(=O)N[C@@]2(CCc4cc(C5CC5)ccc42)C3)nc1` [II-156], under setting [2], the IC50 was determined as 3.6 nM. Take `Cc1ccc(-n2nc3c(c2NC(=O)CS(C)(=O)=O)C(=O)N[C@@]2(CCc4cc(Cl)ccc42)C3)nc1` [II-164]: under setting [2], the IC50 turned out to be 7.55 nM. As to `CS(=O)(=O)CC(=O)Nc1c2c(nn1Cc1nc(C(F)(F)F)cs1)C[C@]1(CCc3cc(OCC(F)(F)F)ccc31)NC2=O` [Compound I-192], the IC50 under setting [1] amounted to 6.5 nM.

These data come from patent US11198695B2, “Fused ring derivative having MGAT-2 inhibitory activity” (Shionogi & Co., Ltd., priority 2017, dated 2021).
